Like-named read-outs stand apart in the source and are kept apart here.
Target: T1, Syk (Homo sapiens, UniProt P43405)
T1 construct: purchased Carna Biosciences
Experiment: Syk HTRF assay
Assay type: biochemical
Procedure, shortened: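 HTRF kinase assay in HEPES pH 7.6 buffer with MgCl2, DTT and Triton X100; start mix of 87.5 μM ATP and 80 nM biotinylated peptide, 1 h at room temperature. EDTA stop, then Eu-anti-phosphotyrosine/streptavidin-DyLight 647 detection, read as 665/615 nm emission ratio.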

[1] = IC50 activity level, read-out: Activity Level
[2] = read-out: Activity Level (Syk HTRF assay IC50)
[3] = activity levels A-D, read-out: Activity Level (IC50 in the Syk HTRF assay)

Structure (SMILES) | IC50 [1] | IC50 [2] | also measured
Oc1cc(Nc2cccc3nc(Nc4ccc(C(F)(F)F)cc4)nn23)ccn1 [Example 415, 4-(2-(4-(trifluoromethyl)phenylamino)-[1,2,4]triazolo[1,5-a]pyridin-5-ylamino)pyridin-2-ol] | 1000 to 10000 nM | – | –
FC(F)(F)c1ccc(Nc2nc3cccc(CN4CCOCC4)n3n2)cc1 [Example 308, 5-(morpholinomethyl)-N-(4-(trifluoromethyl)phenyl)-[1,2,4]triazolo[1,5-a]pyridin-2-amine] | – | – | IC50 [3]: 1000 to 10000 nM
Cc1cccc(Nc2nc3cccc(N[C@H]4CC[C@@H](O)CC4)n3n2)c1 [Example 350, cis-4-(2-(m-tolylamino)-[1,2,4]triazolo[1,5-a]pyridin-5-ylamino)cyclohexanol] | – | – | IC50 [3]: 0.005 to 250 nM
CC(Cc1cccc2nc(Nc3ccccc3)nn12)C(N)=O (stereo in doubt) [Example 461, (S)-2-methyl-3-(2-(phenylamino)-[1,2,4]triazolo[1,5-a]pyridin-5-yl)propanamide] | 1000 to 10000 nM | – | –
CNC(=O)c1ccc(Nc2nc3cccc(NC4CCC(N)CC4)n3n2)cc1 (stereo in doubt) [Example 394, trans-4-(5-(4-aminocyclohexylamino)-[1,2,4]triazolo[1,5-a]pyridin-2-ylamino)-N-methylbenzamide] | – | – | IC50 [3]: 250 to 500 nM
CNC(=O)c1cccc(Nc2nc3cccc(N[C@H]4CC[C@@H](O)CC4)n3n2)c1 [Example 316, cis-3-(5-(4-hydroxycyclohexylamino)-[1,2,4]triazolo[1,5-a]pyridin-2-ylamino)-N-methylbenzamide] | – | – | IC50 [3]: 250 to 500 nM
OC[C@@H](Nc1cccc2nc(Nc3ccc(C(F)(F)F)cc3)nn12)c1ccccc1 [Example 413, (S)-2-phenyl-2-(2-(4-(trifluoromethyl)phenylamino)-[1,2,4]triazolo[1,5-a]pyridin-5-ylamino)ethanol] | 1000 to 10000 nM | – | –
CNC(=O)c1ccc(Nc2nc3cccc(N4CCC(O)CC4)n3n2)cc1 [Example 242, 4-(5-(4-hydroxypiperidin-1-yl)-[1,2,4]triazolo[1,5-a]pyridin-2-ylamino)-N-methylbenzamide] | – | – | IC50 [3]: 1000 to 10000 nM
O[C@H]1CCCC[C@@H]1Nc1cccc2nc(Nc3ccc(C(F)(F)F)cc3)nn12 [Example 334, (1S,2S)-2-(2-(4-(trifluoromethyl)phenylamino)-[1,2,4]triazolo[1,5-a]pyridin-5-ylamino)cyclohexanol] | – | – | IC50 [3]: 1000 to 10000 nM
Cn1nc(NC2CCOCC2)c2ccc(Nc3nc4cccc(CC5CCOCC5)n4n3)cc21 [Example 99] | – | 1000 to 10000 nM | –
NCCN1Cc2cc(-c3cccc4nc(Nc5ccccc5)nn34)ccc2C1=O [Example 494, 2-(2-aminoethyl)-5-(2-(phenylamino)-[1,2,4]triazolo[1,5-a]pyridin-5-yl)isoindolin-1-one] | 500 to 1000 nM | – | –
N#Cc1ccc(Nc2nc3cccc(N[C@H]4CC[C@@H](O)CC4)n3n2)cc1 [Example 363, 4-(5-(cis-4-hydroxycyclohexylamino)-[1,2,4]triazolo[1,5-a]pyridin-2-ylamino)benzonitrile] | – | – | IC50 [3]: 0.005 to 250 nM
Nc1n[nH]c2cc(-c3cccc4nc(Nc5ccccc5)nn34)ccc12 [Example 439, 5-(3-amino-1H-indazol-6-yl)-N-phenyl-[1,2,4]triazolo[1,5-a]pyridin-2-amine] | 0.005 to 250 nM | – | –
CNC(=O)c1ccc(Nc2nc3cccc(NC4CCOCC4)n3n2)cc1 [Example 456, N-methyl-4-(5-(tetrahydro-2H-pyran-4-ylamino)-[1,2,4]triazolo[1,5-a]pyridin-2-ylamino)benzamide] | 1000 to 10000 nM | – | –
N#Cc1ccc(Nc2nc3cccc(N[C@H]4CC[C@@H](O)CC4)n3n2)cn1 [Example 381] | – | – | IC50 [3]: 1000 to 10000 nM
c1ccc(Nc2nc3cccc(-c4ccccn4)n3n2)cc1 [Example 488, N-phenyl-5-(pyridin-2-yl)-[1,2,4]triazolo[1,5-a]pyridin-2-amine] | 1000 to 10000 nM | – | –
O[C@H]1CC[C@@H](Cc2cccc3nc(Nc4ccc(C(F)(F)F)cc4)nn23)CC1 [Example 399, cis-4-((2-(4-(trifluoromethyl)phenylamino)-[1,2,4]triazolo[1,5-a]pyridin-5-yl)methyl)cyclohexanol] | 0.005 to 250 nM | – | –
Cn1ncc2ccc(Nc3nc4cccc(CC5CCOCC5)n4n3)cc21 [Example 160, N-(1-methyl-1H-indazol-6-yl)-5-((tetrahydro-2H-pyran-4-yl)methyl)-[1,2,4]triazolo[1,5-a]pyridin-2-amine] | – | 0.005 to 250 nM | –
O[C@@H]1CCC[C@@H](Nc2cccc3nc(Nc4ccc(C(F)(F)F)cc4)nn23)C1 (single isomer, unassigned; enantiomer 2) [Example 224, cis-3-(2-(4-(trifluoromethyl)phenylamino)-[1,2,4]triazolo[1,5-a]pyridin-5-ylamino)cyclohexanol (enantiomer 2)] | – | – | IC50 [3]: 1000 to 10000 nM
Cc1n[nH]c2cc(Nc3nc4cccc(C[C@H]5CC[C@H](O)CC5)n4n3)ccc12 (stereo in doubt) [Example 240, trans-4-((2-(3-methyl-1H-indazol-6-ylamino)-[1,2,4]triazolo[1,5-a]pyridin-5-yl)methyl)cyclohexanol] | – | – | IC50 [3]: 0.005 to 250 nM
O=C1Cc2ccc(Nc3nc4cccc(N[C@H]5CC[C@@H](O)CC5)n4n3)cc2N1 [Example 238, cis-6-(5-(4-hydroxycyclohexylamino)-[1,2,4]triazolo[1,5-a]pyridin-2-ylamino)indolin-2-one] | – | – | IC50 [3]: 0.005 to 250 nM

Further lines, with some results ahead:

IC50 [1] | IC50 [2] | Structure (SMILES) | also measured
– | 0.005 to 250 nM | CN(C)Cc1nc2ccc(Nc3nc4cccc(-c5ccccc5)n4n3)cc2[nH]1 [compound 31, N-(2-((dimethylamino)methyl)-1H-benzo[d]imidazol-6-yl)-5-phenyl-[1,2,4]triazolo[1,5-a]pyridin-2-amine] | –
500 to 1000 nM | – | Cc1cc(Nc2nc3cccc(CC4CCOCC4)n3n2)cnc1N1CCOCC1 [Example 535, N-(5-methyl-6-morpholinopyridin-3-yl)-5-((tetrahydro-2H-pyran-4-yl)methyl)-[1,2,4]triazolo[1,5-a]pyridin-2-amine] | –
– | 1000 to 10000 nM | N#Cc1cc(Nc2nc3cccc(-c4ccccc4)n3n2)ccn1 [compound 52] | –
0.005 to 250 nM | – | Cc1n[nH]c2cc(Nc3nc4cccc(CC(C)CO)n4n3)ccc12 (stereo in doubt) [Example 555, (S)-2-methyl-3-(2-(3-methyl-1H-indazol-6-ylamino)-[1,2,4]triazolo[1,5-a]pyridin-5-yl)propan-1-ol] | –
– | 250 to 500 nM | CC1(C)C(=O)Nc2cc(Nc3nc4cccc(O[C@H]5CCOC5)n4n3)ccc21 [compound 133, (S)-3,3-dimethyl-6-(5-(tetrahydrofuran-3-yloxy)-[1,2,4]triazolo[1,5-a]pyridin-2-ylamino)indolin-2-one] | –
1000 to 10000 nM | – | Cc1n[nH]c2ncc(Nc3nc4cccc(NC5CCOCC5)n4n3)cc12 [Example 539, N^2-(3-methyl-1H-pyrazolo[3,4-b]pyridin-5-yl)-N^5-(tetrahydro-2H-pyran-4-yl)-[1,2,4]triazolo[1,5-a]pyridin-2,5-diamine] | –
– | 0.005 to 250 nM | CNC(=O)c1ccc(Nc2nc3cccc(-c4cccc(Cl)c4)n3n2)cc1 [compound 13, 4-(5-(3-chlorophenyl)-[1,2,4]triazolo[1,5-a]pyridin-2-ylamino)-N-methylbenzamide] | –
– | 0.005 to 250 nM | CNC(=O)c1ccc(Nc2nc3cccc(-c4cccc(O)c4)n3n2)cc1 [compound 36, 4-(5-(3-hydroxyphenyl)-[1,2,4]triazolo[1,5-a]pyridin-2-ylamino)-N-methylbenzamide] | –
– | 0.005 to 250 nM | O=S1(=O)NCc2ccc(Nc3nc4cccc(-c5ccccc5)n4n3)cc21 [compound 37] | –
0.005 to 250 nM | – | CC(C)Nc1cccc2nc(Nc3ccc4c(c3)NC(=O)C4(C)C)nn12 [Example 549, 6-(5-(isopropylamino)-[1,2,4]triazolo[1,5-a]pyridin-2-ylamino)-3,3-dimethylindolin-2-one] | –
500 to 1000 nM | – | Cc1n[nH]c2ncc(Nc3nc4cccc(CC5CCOCC5)n4n3)cc12 [Example 544, 3-methyl-N-(5-((tetrahydro-2H-pyran-4-yl)methyl)-[1,2,4]triazolo[1,5-a]pyridin-2-yl)-1H-pyrazolo[3,4-b]pyridin-5-amine] | –
1000 to 10000 nM | – | Cc1noc2cc(Nc3nc4cccc(NC5CCOCC5)n4n3)ccc12 [Example 531, N^2-(3-methylbenzo[d]isoxazol-6-yl)-N^5-(tetrahydro-2H-pyran-4-yl)-[1,2,4]triazolo[1,5-a]pyridine-2,5-diamine] | –
– | 500 to 1000 nM | c1ccc(-c2cccc3nc(Nc4cccnc4)nn23)cc1 [compound 75, 5-phenyl-N-(pyridin-3-yl)-[1,2,4]triazolo[1,5-a]pyridin-2-amine] | –
– | 0.005 to 250 nM | CN(C)Cc1nc2ccc(Nc3nc4cccc(-c5cccc(F)c5)n4n3)cc2[nH]1 [compound 1, N-(2-((dimethylamino)methyl)-1H-benzo[d]imidazol-6-yl)-5-(3-fluorophenyl)-[1,2,4]triazolo[1,5-a]pyridin-2-amine] | –
– | 1000 to 10000 nM | CC1(C)NC(=O)c2cc(Nc3nc4cccc(CC5CCOCC5)n4n3)ccc21 [compound 113, 3,3-dimethyl-6-(5-((tetrahydro-2H-pyran-4-yl)methyl)-[1,2,4]triazolo[1,5-a]pyridin-2-ylamino)isoindolin-1-one] | –
– | 0.005 to 250 nM | CC1(C)C(=O)Nc2cc(Nc3nc4cccc(N5CCC(O)CC5)n4n3)ccc21 [compound 114, 6-(5-(4-hydroxypiperidin-1-yl)-[1,2,4]triazolo[1,5-a]pyridin-2-ylamino)-3,3-dimethylindolin-2-one] | –
1000 to 10000 nM | – | Cc1nnc2cc(Nc3nc4cccc(CC5CCOCC5)n4n3)ccn12 [Example 538, 3-methyl-N-(5-((tetrahydro-2H-pyran-4-yl)methyl)-[1,2,4]triazolo[1,5-a]pyridin-2-yl)-[1,2,4]triazolo[4,3-a]pyridin-7-amine] | –
– | 250 to 500 nM | NCCN1Cc2cc(Nc3nc4cccc(-c5ccccc5)n4n3)ccc2C1=O [compound 45, 2-(2-aminoethyl)-5-(5-phenyl-[1,2,4]triazolo[1,5-a]pyridin-2-ylamino)isoindolin-1-one] | –

Source: patent publication US8299056B2 (Signal Pharmaceuticals, LLC, priority 2008, dated 2012)
